According to patent publication US7314709B2, “Compositions and methods for detecting and quantifying COX-2 activity by lipoamino acid metabolism” (Vanderbilt University, priority 2002, dated 2008):
Residue numbers refer to the chain shown, from its start.

Legend:
Assay type in all cases: biochemical, murine
mCOX-2 Y355F = target: T1, mCOX-2 Y355F (Mus musculus, UniProt Q05769, Y341F); experiment: Initial O2 uptake rate with constriction site mutant Y355F; settings: 200 nM enzyme; AA 100 μM
T1 construct: made in house; host or cells: Sf-9 insect cells
T1 sequence (Q05769 18-604 Y341F): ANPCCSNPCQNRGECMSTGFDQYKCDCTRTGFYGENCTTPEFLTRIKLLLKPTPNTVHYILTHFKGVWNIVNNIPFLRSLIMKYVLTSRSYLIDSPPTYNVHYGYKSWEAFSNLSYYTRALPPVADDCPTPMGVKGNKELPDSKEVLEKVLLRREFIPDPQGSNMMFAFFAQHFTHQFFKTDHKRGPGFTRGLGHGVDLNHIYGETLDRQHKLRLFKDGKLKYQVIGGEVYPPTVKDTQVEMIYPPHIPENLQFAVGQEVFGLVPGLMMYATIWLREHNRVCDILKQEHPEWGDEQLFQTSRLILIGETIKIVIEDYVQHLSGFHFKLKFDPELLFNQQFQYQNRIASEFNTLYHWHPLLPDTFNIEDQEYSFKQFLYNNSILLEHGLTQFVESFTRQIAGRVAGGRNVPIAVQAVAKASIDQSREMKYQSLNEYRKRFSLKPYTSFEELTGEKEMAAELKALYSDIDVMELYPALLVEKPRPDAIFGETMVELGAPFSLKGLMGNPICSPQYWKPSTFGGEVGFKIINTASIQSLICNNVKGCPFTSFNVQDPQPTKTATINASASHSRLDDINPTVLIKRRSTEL
Method: (§1) Enzymology: COX-1 was purified from ram seminal vesicles as previously described. Site-directed mutagenesis of COX-2 was performed as described previously. Recombinant COX-2 enzymes were expressed in Sf-9 insect cells and purified by ion-exchange chromatography and gel filtration as previously described. Apo-enzymes were reconstituted with hematin prior to activity assays.
(§2) COX activity was quantified as previously described. Initial reaction velocity data were obtained from the linear portion of the oxygen uptake curves. Oxygraph data were analyzed by nonlinear regression with Enzyme Kinetics 1.5 software (Trinity Software, Campton, N.H.).
(§3) At the bottom of the substrate (and inhibitor) binding site, there is a hydrogen bonding network comprised of residues Arg-120, Tyr-355, and Glu524, that form a constriction which is present in both COX isoforms. These residues contribute to the binding of the carboxylate in both AA and NSAIDs, and the glycerol moiety of 2-AG [12,23-27].

mCOX-2 E524L = target: T2, mCOX-2 E524L (Mus musculus, UniProt Q05769, E510L); experiment: Initial O2 uptake rate with constriction site mutant E524L; settings: 200 nM enzyme; AA 100 μM, NAGly 200 μM
T2 construct: made in house; host or cells: Sf-9 insect cells
T2 sequence (Q05769 18-604 E510L): T1 sequence (Q05769 18-604 Y341F) with F324Y, E493L
Method: as §1, §2, §3

mCOX-2 V523I = target: T3, mCOX-2 V523I (Mus musculus, UniProt Q05769, V509I); experiment: Initial O2 uptake rate with side pocket mutant V523I; settings: 200 nM enzyme; AA 100 μM
T3 construct: made in house; host or cells: Sf-9 insect cells
T3 sequence (Q05769 18-604 V509I): T1 sequence (Q05769 18-604 Y341F) with F324Y, V492I
Method: as §1, §2
(§4) Previous studies have identified residues in the side pocket of COX-2, especially Arg-513, as critical determinants of 2-AG oxygenation by COX-2 [13]. […] (FIG. 5).

mCOX-2 R513H = target: T4, mCOX-2 R513H (Mus musculus, UniProt Q05769, R499H); experiment: Initial O2 uptake rate with side pocket mutant R513H; settings: 200 nM enzyme; AA 100 μM, NAGly 200 μM
T4 construct: made in house; host or cells: Sf-9 insect cells
T4 sequence (Q05769 18-604 R499H): T1 sequence (Q05769 18-604 Y341F) with F324Y, R482H
Method: as §1, §2, §4

## CCCCC/C=C\C/C=C\C/C=C\C/C=C\CCCC(=O)O [AA, arachidonic acid]
mCOX-2 Y355F
  reduction in initial rate of oxygenation compared with wild-type: < 3 fold
mCOX-2 E524L
  reduction in initial rate of oxygenation compared with wild-type: < 3 fold
mCOX-2 V523I
  effect of mutation on ability to metabolize AA: did not greatly affect
mCOX-2 R513H
  effect of mutation on oxygenation rate: did not greatly affect
